Laboratory results published in US8455223B2, “Dehydrogenases, the derivatives thereof, and method for the production of optically active alkanols” (BASF SE, priority 2005, dated 2013).

Assays:
[1] = test system: ADH-4 enzyme SEQ ID NO: 4; test: Relative activity of dehydrogenase for various substrates, with cofactor regeneration, monophasic liquid system (Example 2); type: biochemical, Candida; details: cofactor regeneration with glucose and glucose dehydrogenase
Experimental: (§1) Relative activity of the dehydrogenases of the invention for various substrates (optical purity in % ee is indicated in brackets) with cofactor regeneration.
(§2) The reaction was carried out in a manner similar to example 1. Cofactor regeneration was carried out by way of addition of glucose and glucose dehydrogenase in a monophasic liquid system.

[2] = test system: ADH-3 enzyme SEQ ID NO: 2; test: as above; type: biochemical, Candida; details: cofactor regeneration with glucose and glucose dehydrogenase
Experimental: as §1, §2

[3] = test system: Comparative enzyme EP 1152054 SEQ ID NO: 1; test: as above; type: biochemical; details: cofactor regeneration with glucose and glucose dehydrogenase
Experimental: as §1, §2

[4] = test system: ADH-4 enzyme SEQ ID NO: 4; test: Relative activity of dehydrogenase for various substrates, with cofactor regeneration in the 2-phase system (Example 3); type: biochemical, Candida
[5] = test system: ADH-3 enzyme SEQ ID NO: 2; test: as above; type: biochemical, Candida
[6] = test system: Comparative enzyme EP 1152054 SEQ ID NO: 1; test: as above; type: biochemical
[7] = test system: ADH-4 enzyme SEQ ID NO: 4; test: Relative activity of dehydrogenase for various substrates, without cofactor regeneration (Example 1); type: biochemical, Candida; details: 37° C., approx. 20 hours, chiral gas chromatography
Experimental: (§3) Relative activity of the dehydrogenases of the invention for various substrates (optical purity in % ee is indicated in brackets)
(§4) The reaction was carried out without cofactor regeneration.
(§5) 180 μl of 50 mM Kpi buffer, including 1 mM MgCl2
(§6) 200 μl of NADPH, 10 mM stock solution
(§7) 100 μl of substrate, 1 M stock solution 500 μl of hexane
(§8) The reaction mixture was incubated at 37° C. and 1000 rpm for approx. 20 hours. It was then centrifuged at 20° C., the clear supernatant was removed and analyzed by chiral gas chromatography.

[8] = test system: ADH-3 enzyme SEQ ID NO: 2; test: as above; type: biochemical, Candida; details: 37° C., approx. 20 hours, chiral gas chromatography
Experimental: as §3, §4, §5, §6, §7, §8

[9] = test system: Comparative enzyme EP 1152054 SEQ ID NO: 1; test: as above; type: biochemical; details: 37° C., approx. 20 hours
Experimental: as §3, §4, §5, §6, §7, §8

[10] = ADH-4 enzyme, cofactor regeneration, two-phase liquid system (MTBE: aqueous)
[11] = ADH-3 enzyme, cofactor regeneration, two-phase liquid system (MTBE: aqueous)
[12] = cofactor regeneration, two-phase liquid system (MTBE: aqueous)

| Compound | Relative activity [1] | Relative activity [2] | Relative activity [3] | Relative activity [4] | Relative activity [5] | Relative activity ([6]; […]) | Relative activity [7] | Relative activity [8] | Relative activity [9] | Relative activity [4, 10] | Relative activity [5, 11] | Relative activity [6, 12] |
| --- | --- | --- | --- | --- | --- | --- | --- | --- | --- | --- | --- | --- |
| O=C(CCl)c1ccc(Cl)cc1 [p-DICAP, 2,4′-dichloro-acetophenone] | 62.1 | 18.9 | 62.5 | 27.6 (42% S) | 30.4 (>99% R) | 24.2 (>99% R) | – | – | – | – | – | – |
| CC(=O)c1ccccc1 [Acetophenone] | – | 8.9 | 0.7 | – | – | – | 3.14 | 16.08 | 0.84 | 0.4 | 71.2 | 0.2 |
| O=C(CCl)c1cccc(Cl)c1 [m-DICAP, 2,3′-dichloro-acetophenone] | 55.8 | 100 | 47.1 | 24.6 (6% S) | 100 | 14 (>99% R) | 56.38 | 100 | 2.3 | – | – | – |
| 4-chloro-methoxyacetophenone [CMAP] | – | – | – | – | – | – | 24.89 | 34.46 | 29.44 | 77.1 | 100 | 46.8 |
| O=C(CCl)c1ccc(F)cc1 [FCA, 4′-fluoro-2-chloro-acetophenone] | 53.6 | 99.5 | 50.4 | 15.3 | 99.5 | 12.6 | – | – | – | – | – | – |
